Measured values reported in paper PMC11234416 (Advanced Science, 2024).

Assays:
[1] = target: T1, GSNOR (M. oryzae) (Pyricularia oryzae, UniProt G4N4N6); experiment: biochemical
T1 construct: gene MGG_06011

[2] = target: T2, rice GSNOR (Oryza sativa, UniProt Q0DWH1); experiment: surface plasmon resonance (OpenSPR); assay type: binding
T2 construct: gene Os02g0815500
T2 sequence (Q0DWH1 whole entry): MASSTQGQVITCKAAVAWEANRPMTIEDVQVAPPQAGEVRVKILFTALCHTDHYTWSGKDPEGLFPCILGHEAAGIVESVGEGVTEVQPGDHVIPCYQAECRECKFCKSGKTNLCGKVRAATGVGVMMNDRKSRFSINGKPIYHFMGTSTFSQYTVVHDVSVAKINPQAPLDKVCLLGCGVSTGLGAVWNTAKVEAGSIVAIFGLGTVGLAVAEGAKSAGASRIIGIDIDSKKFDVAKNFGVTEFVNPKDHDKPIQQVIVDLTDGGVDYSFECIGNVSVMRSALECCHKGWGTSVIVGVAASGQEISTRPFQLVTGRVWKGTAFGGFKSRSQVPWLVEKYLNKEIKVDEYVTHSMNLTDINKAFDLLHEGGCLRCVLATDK

T1 sequence (G4N4N6 1-381): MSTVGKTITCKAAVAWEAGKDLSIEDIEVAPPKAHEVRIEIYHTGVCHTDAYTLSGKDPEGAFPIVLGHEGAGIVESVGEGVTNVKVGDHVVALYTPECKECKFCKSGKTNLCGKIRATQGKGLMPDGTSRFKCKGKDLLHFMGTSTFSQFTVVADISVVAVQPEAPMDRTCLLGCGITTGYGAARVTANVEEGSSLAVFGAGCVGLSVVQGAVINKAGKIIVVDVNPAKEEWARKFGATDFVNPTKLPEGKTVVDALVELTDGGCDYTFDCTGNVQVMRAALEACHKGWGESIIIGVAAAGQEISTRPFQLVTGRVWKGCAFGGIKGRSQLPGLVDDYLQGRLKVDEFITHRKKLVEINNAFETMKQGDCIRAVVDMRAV

`Cc1cc(C(N)=O)ccc1-n1c(CCC(=O)O)ccc1-c1ccc(-n2ccnc2)cc1` [N6022] was tested, and the Kd [1] was 55.8 µM and the Kd [2] was 288 µM.
